Assay results as given in US8653046B2, “Controlling transgene expression across the skin” (ETH Zurich, priority 2009, dated 2014).

Experiments:
CHO-K1 = assay: Toxicity of flavonoids: CHO-K1 transiently transfected with pSEAP2-Control, SEAP levels after 48 h; conditions: 0, 25, 50 μM, genistein cytotoxic only at 50 μM
Procedure: (A) Toxicity of flavonoids. CHO-K1 are transiently transfected with pSEAP2-Control, and cultivated in medium supplemented with different flavonoids (0, 25, 50 μM). SEAP levels are scored after 48 h.
CHO-K1 are transiently (co-)transfected with either pMG10 (PTtgR1-SEAP-pA) and pMG11 (PSV40-TtgA1-pA), to score regulation performance, or with pSEAP2-Control (PSV40-SEAP-pA), to assess compound-related cytotoxicity, and then cultivated for 48 h in medium containing different concentrations (0, 25, 50 μM) of specific flavonoid type compounds (berberine, butylparaben, genistein, luteolin, β-naphthol, naringenin, phloretin, phloridzin or quercetin) before SEAP production is profiled (FIG. 5A).
Wild-type Chinese hamster ovary cells (CHO-K1, ATCC: CCL-61) and their derivatives are cultivated in standard medium: ChoMaster® HTS (Cell Culture Technologies, Gravesano, Switzerland) supplemented with 5% (v/v) fetal calf serum (FCS, PAN Biotech GmbH, Aidenbach, Germany, Cat. No. 3302, Lot No. P251110) and 1% (v/v) penicillin/streptomycin solution (Sigma, St Louis, Mo., USA, Cat. No. P4458). Human embryonic kidney cells (HEK-293, Mitta B., et al., 2002, Nucleic Acids Res 30(21):e113), African green monkey kidney cells (COS-7, ATCC: CRL-1651), baby hamster kidney cells (BHK-21, ATCC: CCL10), human fibrosarcoma cells (HT-1080, ATCC: CCL-121), the human keratinocyte cell line HaCaT (Boukamp P., et al., 1988, J Cell Biol 106(3):761-771) and mouse fibroblasts (NIH/3T3, ATCC: CRL-1658) are cultured in Dulbecco's modified Eagle's medium (DMEM; Invitrogen, Cat. No. 52100-39) supplemented with 10% FCS (v/v) and 1% (v/v) penicillin/streptomycin solution. Primary human foreskin fibroblasts are cultivated in DMEM supplemented with 20% FCS (v/v) and 1% (v/v) penicillin/streptomycin solution and primary human foreskin keratinocytes are cultured in chemically defined serum-free keratinocyte medium (Invitrogen, Cat. No. 10744019). All cell types are cultivated at 37° C. in a 5% CO2-containing humidified atmosphere. For transient transfection of CHO-K1, 1 μg of total plasmid DNA (for co-transfection an equal amount of each plasmid) is transfected into 50,000 cells per well of a 24-well plate according to an optimized calcium phosphate protocol (Greber D., Fussenegger M., 2007, Biotechnol Bioeng 96(5):821-834). Plasmid DNA is diluted to a total volume of 25 μL 0.5 M CaCl2 solution, which is mixed with 25 μL 2×HBS solution (50 mM HEPES, 280 mM NaCl, 1.5 mM Na2HPO4, pH 7.1). After incubation for 15 min at room temperature, the precipitates are immediately added to the well and centrifuged onto the cells (5 min at 1,200×g) to increase transfection efficiency. After 3 h, the cells are treated with 0.5 mL glycerol solution (ChoMaster® HTS medium containing 15% glycerol) for 60 sec. After washing once with phosphate-buffered saline (PBS, Dulbecco's Phosphate-Buffered Saline; Invitrogen, Cat. No. 21600-0069), cells are cultivated in 0.5 mL standard ChoMaster® HTS medium in the presence or absence of different concentrations of phloretin. For transfection of BHK-21, COS-7 and HEK-293, plasmid DNA-Ca2PO4 precipitate is prepared and applied to the cells as described above. HEK-293 and COS-7 cells are washed once with PBS after 3 h incubation with the DNA-Ca2PO4 precipitate and subsequently cultivated in standard DMEM, while BHK-21 cells are incubated overnight with the precipitates and then cultivated in DMEM medium after being washed once with PBS. […]

[1] = test system: microencapsulated CHO-PEACE8 implants; assay: Transdermal phloretin control of SEAP from microencapsulated CHO-PEACE8 implanted subcutaneously in mice; type: in vivo, female OF1 mice; conditions: vaseline-based skin lotion 200 μL, 0-42 mg phloretin, every day; 72 h after implantation
Procedure: (A) Microencapsulated CHO-PEACE8 are implanted subcutaneously into female OF1 mice (2×10^6 cells/mouse). 200 μL of a cream containing different amounts of phloretin (0, 5.25, 10.5, 21 and 42 mg) is applied to a shaved skin area near the implant site. SEAP serum levels are quantified 72 h post implantation.
CHO-PEACE8 is microencapsulated in coherent alginate-PLL-alginate capsules and implanted subcutaneously into mice. The back of treated mice is partially shaved and vaseline-based skin lotions (200 μL) containing different amounts of phloretin (0-42 mg) are put on every day. […]
CHO-PEACE8 and CHO-SEAP18 (Fluri D. A., Kemmer C., Daoud-El Baba M., Fussenegger M., 2008, J Control Release 131(3):211-219) are encapsulated in alginate-poly-(L-lysine)-alginate beads (400 μm; 200 cells/capsule) using an Inotech Encapsulator Research IE-50R (Recipharm, Basel, Switzerland) according to the manufacturer's instructions and the following parameters: 0.2 mm nozzle, 20 mL syringe at a flow rate of 405 units, nozzle vibration frequency of 1024 Hz and 900 V for bead dispersion. […] Thereafter, the mice are sacrificed, blood samples collected and SEAP levels are quantified in the serum which is isolated using microtainer SST tube according to the manufacturer's instructions (Beckton Dickinson, Plymouth, UK). […]

O=C(CCc1ccc(O)cc1)c1c(O)cc(O)cc1O [phloretin, 3-[4-hydroxyphenyl]-1-[2,4,6-trihydroxyphenyl]-1-propanone]
compound-related cytotoxicity / cell viability (CHO-K1): do not reduce cell viability | SEAP serum levels in treated mice [1]: phloretin-dependent dose-response characteristics
